# Reference: patent publication US12594350B2, “CD8-specific capture agents, compositions, and methods of using and making” (Regeneron Pharmaceuticals, Inc., priority 2016, dated 2026)
# Bridge positions count the residues as written; N and C are the ends. Square brackets hold non-standard residues; d marks the D form. Triazole bridges read from a SMILES are 1,4-linked. Ends that are not written are not given here. Peptide text beside a SMILES is read from it. * marks the point of attachment. Biotin = O=C1N[C@H]2[C@H](CS[C@H]2CCCCC(=O)*)N1; Lys(N3) = [N-]=[N+]=NCCCC[C@H](N)C(=O)O; Pra = C#CC[C@H](N)C(=O)O; AEA = NCCOCC(=O)O
# Experiments:
# [1] = target: His-tagged CD8α human recombinant protein (Homo sapiens, UniProt P01732); test: CD8 ELISA (affinity assay) of biligands to determine cooperativity; assay type: binding; parameters: purchased Origene TP760215; settings: biotinylated biligand immobilized on NeutrAvidin plate; CD8α titrated 200 to 0 nM; read-out: EC50 against CD8
# Method: CD8 ELISA (Affinity assay). […] The plate was then blocked with 2 μM Biotin for 15 min.
# This predicts that an optimized linker to covalently join two PCC macrocycles will have a length near 28.2 Å. In FIG. 17 that prediction is validated by testing polyethylene glycol (PEG) linkers of varying lengths. […] This represents a >30-fold improvement in affinity relative to the individual PCC macrocyclic ligands. Shorter or longer linkers yield biligand affinities that, while improved over either of the PCC macrocycles, are about ˜10-fold below that of the optimal linker.
# human PBMCs = test: Cellular binding assay of CD8 biligand by flow cytometry; assay type: cell-based; settings: human PBMCs co-stained with CD3-APC mAb; biligand 5 μM
# Method: Cryopreserved human peripheral blood mononuclear cells (PBMCs) from Zen-Bio (1 donor; #SER-PBMC-F) were thawed using Lymphocyte Medium (#LYMPH-1, Zen-Bio) following the vendor's protocol. Cells were then resuspended in FACS buffer (1× Dulbecco's Phosphate-Buffered Saline+2% Fetal Bovine Serum+2 mM EDTA).
# Protocol: A total of 1×10^6 human PBMCs in 50 μL of FACs buffer was incubated with 0.5 μL of Alexa Fluor 488-labeled biligand Cy(HGRGH) (SEQ ID NO: 21)-PEG5-Cy(AKYRG) (SEQ ID NO: 8) (final concentration: 5 μM), 2 μL of human CD3-APC mAb (clone: BW264/56) (#130-098-156, MACS Miltenyi Biotec), and 2.5 μL of 7-AAD Viability Staining Solution (#00-6993, eBioscience) at room temperature for 30 min. […] Data were obtained and analyzed with FACSCalibur and FACSDiva v8.0.1 (BD Biosciences), respectively.
# Flow cytometry was used to evaluate biligand detection of cellular CD8. […] Samples were then washed and analyzed for green (CD8; FITC-A) and red (CD3; APC-A) fluorescence. […] The cell populations in Q2 (10.9%) and Q4 (11.6%) were detected by the biligand as CD8+ and are consistent with the % CD8+ cells reported by the vendor. […] The cell populations detected by the CD8-FITC mAb were 11.2% in Q2 and 2.1% in Q4.
# [2] = In vivo PET imaging, PK and biodistribution in normal mice; settings: normal mouse, intravenous via tail vein, 50-100 μCi
# Method: In vivo PK of the radiolabeled macrocycle anchors and biligands was visualized and quantitatively determined by PET imaging in normal (healthy) mice. Radiolabeled peptides were formulated in PBS pH 7.4 containing <10% EtOH. 50-100 μCi of radiolabeled peptide was administered intravenously via the tail vein of each mouse. Dynamic (0-1 hour) and static PET imaging was performed to quantify initial peptide biodistribution, time to clear the initial concentration sites, and final excretion route. A CT scan was subsequently acquired for anatomical reference. Imaging was performed on GENISYS8 and Inveon microPET-CT small animal scanners.
# Chain of His-tagged CD8α human recombinant protein (P01732 22-235): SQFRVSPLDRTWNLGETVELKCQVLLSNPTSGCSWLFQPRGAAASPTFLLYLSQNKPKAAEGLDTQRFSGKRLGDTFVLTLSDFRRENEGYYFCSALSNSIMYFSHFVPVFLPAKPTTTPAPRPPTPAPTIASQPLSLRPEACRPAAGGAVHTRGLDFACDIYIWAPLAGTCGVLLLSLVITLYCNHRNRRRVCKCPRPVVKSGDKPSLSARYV
compound,measurement,setting,value
"C[C@H](O)[C@H]1NC(=O)[C@@H](Cc2c[nH]cn2)NC(=O)CNC(=O)[C@@H](N)CCCCn2cc(nn2)C[C@@H](C(=O)N[C@@H](CCCCNC(=O)CCCC[C@@H]2SC[C@@H]3NC(=O)N[C@@H]32)C(=O)NCCOCC(=O)N[C@H]2CCCCn3cc(nn3)C[C@@H](C(N)=O)NC(=O)[C@@H](Cc3c[nH]cn3)NC(=O)CNC(=O)[C@@H](CCCNC(=N)N)NC(=O)CNC(=O)[C@@H](Cc3c[nH]cn3)NC2=O)NC(=O)[C@H]2CCCN2C(=O)[C@@H](Cc2c[nH]c3ccccc23)NC1=O [Cy(Ghtwp)-Lys (Biotin)-PEG1-Cy(hGrGh)] (H-[Lys(N3)]G[dH][dT][dW][dP][Pra]K(Biotin)[AEA][Lys(N3)][dH]G[dR]G[dH][Pra]-NH2; triazole 1-7, 10-16)",EC50,[1],0.058 nM
"Alexa Fluor 488-labeled biligand Cy(HGRGH)-PEG5-Cy(AKYRG): biligand Cy(HGRGH)-PEG5-Cy(AKYRG) resynthesized with an Alexa Fluor 488 label (not fully specified (bridges); also: PEG5 linker joins the two macrocycles, Alexa Fluor 488 label, site not given here)",cell population in Q2 detected as CD8+,human PBMCs,10.9%
same,cell population in Q4 detected as CD8+,human PBMCs,11.6%
"O=Cc1ccc([18F])cc1 [[^18F]FB, 4-[^18F]fluorobenzaldehyde]",biodistribution and clearance route by PET (in words),[2],"rapid kidney uptake and clearance, then near exclusive bladder occupancy by 30 minutes"
